Results taken from ChEMBL document CHEMBL5344443, “Manzamine-A Alters In Vitro Calvarial Osteoclast Function” (J Nat Prod, 2024).
Active and inactive are the calls of the source. The calls are words filed in the database; no cut-off is given here.

Columns and labels:
Format in all cases: functional, cell-based
RAW264.7 [1] = assay: Disruption of differentiated mouse RAW 264.7 osteoclast assessed as reduction in cell density at 1.6 uM incubated for 48 hrs by TRAP staining
RAW264.7 [2] = assay: Induction of apoptosis in mouse differentiated RAW 264.7 osteoclast cells at 47 uM incubated for 24 hrs by Caspase 3/7 assay
RAW264.7 [3] = assay: Antiproliferative activity against mouse differentiated RAW 264.7 osteoclast cells assessed as reduction in cell viability incubated for 24 hrs by MTS viability assay; settings: RAW264.7, 24 h
RAW264.7 [4] = assay: Disruption of differentiated mouse RAW 264.7 osteoclast assessed as loss of osteoclast at 1.6 uM incubated for 24 hrs by TRAP staining
RAW264.7 [5] = assay: Downregulation of Six1 mRNA expression in mouse differentiated RAW 264.7 osteoclasts cells at 47 uM incubated for 48 hrs by qRT-PCR analysis
RAW264.7 [6] = assay: Disruption of differentiated mouse RAW 264.7 osteoclast assessed as loss of osteoclast at 47 uM incubated for 72 hrs by TRAP staining
RAW264.7 [7] = assay: Disruption of differentiated mouse RAW 264.7 osteoclast assessed as loss of osteoclast at 47 uM incubated for 24 hrs by TRAP staining
RAW264.7 [8] = assay: Antiproliferative activity against mouse differentiated RAW 264.7 osteoclast cells assessed as reduction in cell viability incubated for 72 hrs by MTS viability assay; settings: RAW264.7, 72 h
RAW264.7 [9] = assay: Disruption of differentiated mouse RAW 264.7 osteoclast assessed as loss of osteoclast at 120 uM incubated for 48 hrs by TRAP staining
RAW264.7 [10] = assay: Disruption of differentiated mouse RAW 264.7 osteoclast assessed as reduction in cell density at 120 uM incubated for 24 hrs by TRAP staining
RAW264.7 [11] = assay: Downregulation of Six1 mRNA expression in mouse differentiated RAW 264.7 osteoclasts cells at 47 uM incubated for 24 hrs by qRT-PCR analysis
RAW264.7 [12] = assay: Disruption of differentiated mouse RAW 264.7 osteoclast assessed as reduction in cell density at 120 uM incubated for 48 hrs by TRAP staining
RAW264.7 [13] = assay: Disruption of differentiated mouse RAW 264.7 osteoclast assessed as loss of osteoclast at 1.6 uM incubated for 72 hrs by TRAP staining
RAW264.7 [14] = assay: Induction of apoptosis in mouse differentiated RAW 264.7 osteoclast cells at 120 uM incubated for 72 hrs by Caspase 3/7 assay
RAW264.7 [15] = assay: Disruption of differentiated mouse RAW 264.7 osteoclast assessed as reduction in cell density at 47 uM incubated for 24 hrs by TRAP staining
RAW264.7 [16] = assay: Downregulation of Six1 mRNA expression in mouse RAW 264.7 preosteoclasts at 2.5 uM incubated for 48 hrs by qRT-PCR analysis
RAW264.7 [17] = assay: Induction of apoptosis in mouse differentiated RAW 264.7 osteoclast cells at 1.6 uM incubated for 48 hrs by Caspase 3/7 assay
RAW264.7 [18] = assay: Induction of apoptosis in mouse differentiated RAW 264.7 osteoclast cells at 120 uM incubated for 48 hrs by Caspase 3/7 assay
RAW264.7 [19] = assay: Induction of apoptosis in mouse differentiated RAW 264.7 osteoclast cells at 47 uM incubated for 72 hrs by Caspase 3/7 assay
RAW264.7 [20] = assay: Disruption of differentiated mouse RAW 264.7 osteoclast assessed as loss of osteoclast at 120 uM incubated for 24 hrs by TRAP staining
RAW264.7 [21] = assay: Downregulation of Six1 mRNA expression in mouse differentiated RAW 264.7 osteoclasts cells at 120 uM incubated for 24 hrs by qRT-PCR analysis
RAW264.7 [22] = assay: Induction of apoptosis in mouse differentiated RAW 264.7 osteoclast cells at 120 uM incubated for 24 hrs by Caspase 3/7 assay
RAW264.7 [23] = assay: Antiproliferative activity against mouse RAW 264.7 preosteoclast cells assessed as reduction in cell viability incubated for 72 hrs by MTS viability assay; settings: RAW264.7, 72 h
RAW264.7 [24] = assay: Disruption of differentiated mouse RAW 264.7 osteoclast assessed as loss of osteoclast at 120 uM incubated for 72 hrs by TRAP staining
RAW264.7 [25] = assay: Disruption of differentiated mouse RAW 264.7 osteoclast assessed as loss of osteoclast at 47 uM incubated for 48 hrs by TRAP staining
RAW264.7 [26] = assay: Downregulation of Six1 mRNA expression in mouse RAW 264.7 preosteoclasts at 2.5 uM incubated for 24 hrs by qRT-PCR analysis
RAW264.7 [27] = assay: Disruption of differentiated mouse RAW 264.7 osteoclast assessed as reduction in cell density at 120 uM incubated for 72 hrs by TRAP staining
RAW264.7 [28] = assay: Downregulation of Six1 mRNA expression in mouse differentiated RAW 264.7 osteoclasts cells at 120 uM incubated for 48 hrs by qRT-PCR analysis
RAW264.7 [29] = assay: Disruption of differentiated mouse RAW 264.7 osteoclast assessed as reduction in cell density at 47 uM incubated for 48 hrs by TRAP staining
RAW264.7 [30] = assay: Antiproliferative activity against mouse differentiated RAW 264.7 osteoclast cells assessed as reduction in cell viability incubated for 48 hrs by MTS viability assay; settings: RAW264.7, 48 h
RAW264.7 [31] = assay: Induction of apoptosis in mouse differentiated RAW 264.7 osteoclast cells at 1.6 uM incubated for 24 hrs by Caspase 3/7 assay
RAW264.7 [32] = assay: Induction of apoptosis in mouse differentiated RAW 264.7 osteoclast cells at 1.6 uM incubated for 72 hrs by Caspase 3/7 assay
RAW264.7 [33] = assay: Disruption of differentiated mouse RAW 264.7 osteoclast assessed as reduction in cell density at 47 uM incubated for 72 hrs by TRAP staining
RAW264.7 [34] = assay: Antiproliferative activity against mouse RAW 264.7 preosteoclast cells assessed as reduction in cell viability incubated for 24 hrs by MTS viability assay; settings: RAW264.7, 24 h
RAW264.7 [35] = assay: Induction of apoptosis in mouse RAW 264.7 preosteoclast cells at 2.5 uM incubated for 72 hrs by Caspase 3/7 assay
RAW264.7 [36] = assay: Antiproliferative activity against mouse RAW 264.7 preosteoclast cells assessed as reduction in cell viability incubated for 48 hrs by MTS viability assay; settings: RAW264.7, 48 h
RAW264.7 [37] = assay: Induction of apoptosis in mouse RAW 264.7 preosteoclast cells at 2.5 uM incubated for 24 hrs by Caspase 3/7 assay
RAW264.7 [38] = assay: Disruption of differentiated mouse RAW 264.7 osteoclast assessed as reduction in cell density at 1.6 uM incubated for 72 hrs by TRAP staining
RAW264.7 [39] = assay: Disruption of differentiated mouse RAW 264.7 osteoclast assessed as reduction in cell density at 1.6 uM incubated for 24 hrs by TRAP staining
RAW264.7 [40] = assay: Disruption of differentiated mouse RAW 264.7 osteoclast assessed as loss of osteoclast at 1.6 uM incubated for 48 hrs by TRAP staining

**Q.** With `O[C@]12C=C(c3nccc4c3[nH]c3ccccc34)[C@@H]3CCN(CCCC/C=C\CC1)C[C@@]31C[C@@H]3/C=C\CCCCN3[C@H]12` [MANZAMINE A] as the compound, how does the Activity (RAW264.7 [1]) read?
**A.** Active

**Q.** What about the Activity (RAW264.7 [2]) of the same compound?
**A.** Active

**Q.** What about the IC50 (RAW264.7 [3]) of the same compound?
**A.** 1.6 µM

**Q.** What about the Activity (RAW264.7 [4]) of the same compound?
**A.** inactive

**Q.** And the Activity (RAW264.7 [5])?
**A.** Active

**Q.** And the Activity (RAW264.7 [6])?
**A.** Active

**Q.** And the Activity (RAW264.7 [7])?
**A.** Active

**Q.** And the IC50 (RAW264.7 [8])?
**A.** 47 µM

**Q.** What about the Activity (RAW264.7 [9]) of the same compound?
**A.** Active

**Q.** What about the Activity (RAW264.7 [10]) of the same compound?
**A.** Active

**Q.** And the Activity (RAW264.7 [11])?
**A.** Active

**Q.** And the Activity (RAW264.7 [12])?
**A.** Active

**Q.** What about the Activity (RAW264.7 [13]) of the same compound?
**A.** Active

**Q.** What about the Activity (RAW264.7 [14]) of the same compound?
**A.** inactive

**Q.** And the Activity (RAW264.7 [15])?
**A.** Active

**Q.** What about the Activity (RAW264.7 [16]) of the same compound?
**A.** Active

**Q.** And the Activity (RAW264.7 [17])?
**A.** Active

**Q.** What about the Activity (RAW264.7 [18]) of the same compound?
**A.** inactive

**Q.** And the Activity (RAW264.7 [19])?
**A.** inactive

**Q.** What about the Activity (RAW264.7 [20]) of the same compound?
**A.** Active

**Q.** What about the Activity (RAW264.7 [21]) of the same compound?
**A.** Active

**Q.** And the Activity (RAW264.7 [22])?
**A.** Active

**Q.** What about the IC50 (RAW264.7 [23]) of the same compound?
**A.** 1.9 µM

**Q.** And the Activity (RAW264.7 [24])?
**A.** Active

**Q.** And the Activity (RAW264.7 [25])?
**A.** Active

**Q.** And the Activity (RAW264.7 [26])?
**A.** Active

**Q.** And the Activity (RAW264.7 [27])?
**A.** Active

**Q.** What about the Activity (RAW264.7 [28]) of the same compound?
**A.** Active

**Q.** What about the Activity (RAW264.7 [29]) of the same compound?
**A.** Active

**Q.** And the IC50 (RAW264.7 [30])?
**A.** 120 µM

**Q.** What about the Activity (RAW264.7 [31]) of the same compound?
**A.** Active

**Q.** And the Activity (RAW264.7 [32])?
**A.** inactive

**Q.** What about the Activity (RAW264.7 [33]) of the same compound?
**A.** Active

**Q.** And the IC50 (RAW264.7 [34])?
**A.** 2.5 µM

**Q.** And the Activity (RAW264.7 [35])?
**A.** inactive

**Q.** And the IC50 (RAW264.7 [36])?
**A.** 2.2 µM

**Q.** And the Activity (RAW264.7 [37])?
**A.** Active

**Q.** And the Activity (RAW264.7 [38])?
**A.** Active

**Q.** What about the Activity (RAW264.7 [39]) of the same compound?
**A.** inactive

**Q.** What about the Activity (RAW264.7 [40]) of the same compound?
**A.** Active
